Read-outs that look alike come from different tables or passages of the source.
How the values were obtained:
Mcl-1/Bim interaction = Mcl-1/Bim interaction (Homo sapiens (Human), UniProt Q07820); assay: Cell Free Mcl-1: Bim Affinity Assay (Mcl-1 HTRF); assay type: binding; conditions: TR-FRET, recombinant human Mcl-1(171-327), biotin-Bim(51-76); read-out: Mel-1 HTRF IC50
Description: Cell Free Mcl-1: Bim Affinity Assay (Mcl-1 HTRF)
The inhibition of the Mcl-1/Bim interaction was measured using a time-resolved fluorescence resonance energy transfer (TR-FRET) assay. The recombinant human Mcl-1 (C-terminally 6×His tagged Mcl-1 containing residues 171-327) was generated at Amgen Inc (Thousand Oaks, Calif.). A biotinylated peptide derived from human Bim (residues 51-76) was purchased from CPC Scientific (San Jose, Calif.). The TR-FRET assay was conducted in a 384-well white OptiPlate™ (PerkinElmer, Waltham, Mass.) in a total volume of 40 μL. The reaction mixture contained 0.1 nM Mcl-1(171-327), 0.05 nM biotin-Bim(51-76), 0.05 nM LANCER Eu-W1024 Anti-6×His (PerkinElmer), 0.072 nM Streptavidin-Xlent (Cisbio, Bedford, Mass.), and serially diluted test compounds in the binding buffer of 20 mM Hepes, pH 7.5, 150 mM NaCl, 0.016 mM Brij©35, and 1 mM dithiothreitol. Test compounds were pre-incubated with Mcl-1(171-327) and biotin-Bim (51-76) for 60 min before addition of the detection mixture (LANCE Eu-W1024 Anti-6×His and Streptavidin-Xlent). The reaction plates were further incubated overnight and then were read on an Envision® multimode reader (PerkinElmer). Fluorescence signals were measured at 620 nm (40-nm bandwidth) and 665 nm (7.5-nm bandwidth) with a 60 μs delay after excitation at 320 nm (75-nm bandwidth). The signal ratio at 665/620 nm corresponded to the Mcl-1/Bim interaction and was used in all data analyses. The IC50 values of test compounds were determined from duplicate data by analyzing competition curves using a four-parameter sigmoidal model in GraphPad Prism (GraphPad Software, San Diego, Calif.) or in Genedata Screener® (Genedata, Basel, Switzerland).

OPM-2 = assay: Cell Viability Assay (OPM-2 10 FBS); assay type: cell-based, human; conditions: OPM-2 cells, CellTiter-Glo, read-out: OPM-2 10% FBS IC50 IP
Description: Cell Viability Assay (OPM-2 10 FBS)
The human multiple myeloma cell line, OPM-2, was cultured in complete growth medium containing RPMI 1640 and 10% fetal bovine serum (FBS). Cells were seeded into 384-well plates at 3000 cells/well density in complete growth medium containing 10% FBS, and incubated for 16 h with serially diluted test compounds in a 37° C. incubator with 5% CO2. Cell viability was tested using CellTiter-Glo® assay (Promega, Madison, Wis.) according to the manufacturer recommendations. Luminescence was determined using an EnVision® Multilabel plate reader 25 min after the addition of detection reagent. IC50 values were then calculated with Xlfit using a logistical 4-parameter fit model in GraphPad Prism (GraphPad Software, San Diego, Calif.) or in Genedata Screener® (Genedata, Basel, Switzerland).

Chain of Mcl-1/Bim interaction (Q07820 171-327): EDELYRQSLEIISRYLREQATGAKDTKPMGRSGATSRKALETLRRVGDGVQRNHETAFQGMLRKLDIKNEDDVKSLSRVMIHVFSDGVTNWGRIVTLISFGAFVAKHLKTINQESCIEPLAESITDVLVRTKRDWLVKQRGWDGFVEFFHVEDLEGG

C[C@@H]1[C@@H](C)CCC[C@@H]([C@H]2OC[C@@H](N(C)C)CO2)[C@@H]2CC[C@H]2CN2C[C@@]3(CCCc4cc(Cl)ccc43)COc3ccc(cc32)C(=O)NS1(=O)=O (relative stereo) [Example 2, (1S,3′R,6′R,7′R,11′S,12′R)-6-CHLORO-7′-(CIS-5-(DIMETHYLAMINO)-1,3-DIOXAN-2-YL)-11′,12′-DIMETHYL-3,4-DIHYDRO-2H,15′H-SPIRO[NAPHTHALENE-1,22′-[20]OXA[13]THIA[1,14]DIAZATETRACYCLO[14.7.2.0˜3,6˜.0˜19,24-]PENTACOSA[16,18,24]TRIEN]-15′-ONE 13′,13′-DIOXIDE]
IC50 (Mcl-1/Bim interaction): 0.0016 µM | IC50 (OPM-2; 16 h): 0.367 µM

C[C@@H]1[C@@H](C)CCC[C@@H]([C@H]2OC[C@H](N(C)C)CO2)[C@@H]2CC[C@H]2CN2C[C@@]3(CCCc4cc(Cl)ccc43)COc3ccc(cc32)C(=O)NS1(=O)=O (relative stereo) [Example 6, (1S,3′R,6′R,7′R,11′S,12′R)-6-CHLORO-7′-(TRANS-5-(DIMETHYLAMINO)-1,3-DIOXAN-2-YL)-11′,12′-DIMETHYL-3,4-DIHYDRO-2H,15′H-SPIRO[NAPHTHALENE-1,22′-[20]OXA[13]THIA[1,14]DIAZATETRACYCLO[14.7.2.0˜3,6˜.0˜19,24˜]PENTACOSA[16,18,24]TRIEN]-15′-ONE 13′,13′-DIOXIDE]
IC50 (Mcl-1/Bim interaction): 0.00209 µM | IC50 (OPM-2; Homo sapiens, OPM-2, 16 h): 0.557 µM

C[C@@H]1[C@@H](C)CCC[C@H]([C@H]2OC[C@H](N)CO2)[C@@H]2CC[C@H]2CN2C[C@@]3(CCCc4cc(Cl)ccc43)COc3ccc(cc32)C(=O)NS1(=O)=O (relative stereo) [Example 17]
IC50 (Mcl-1/Bim interaction): 0.000645 µM | IC50 (OPM-2; 16 h): 0.194 µM

C[C@@H]1[C@@H](C)CCC[C@H]([C@H]2OC[C@H](N)CO2)[C@@H]2CC[C@H]2CN2C[C@@]3(CCCc4cc(Cl)ccc43)COc3ccc(cc32)C(=O)NS1(=O)=O (relative stereo) [Example 18]
IC50 (Mcl-1/Bim interaction): 0.00137 µM | IC50 (OPM-2; 16 h): 1.05 µM

CN[C@H]1CO[C@@H]([C@H]2CCC[C@H](C)[C@@H](C)S(=O)(=O)NC(=O)c3ccc4c(c3)N(C[C@@H]3CC[C@H]32)C[C@@]2(CCCc3cc(Cl)ccc32)CO4)OC1 (relative stereo) [Example 41]
IC50 (Mcl-1/Bim interaction): 0.00799 µM | IC50 (OPM-2; 16 h): 7.07 µM

CN[C@H]1CO[C@@H]([C@H]2CCC[C@H](C)[C@@H](C)S(=O)(=O)NC(=O)c3ccc4c(c3)N(C[C@@H]3CC[C@H]32)C[C@@]2(CCCc3cc(Cl)ccc32)CO4)OC1 (relative stereo) [Example 42]
IC50 (Mcl-1/Bim interaction): 0.000617 µM | IC50 (OPM-2; 16 h): 0.217 µM

C[C@@H]1[C@@H](C)CCC[C@H]([C@H]2OC[C@H](N3C(=O)c4ccccc4C3=O)CO2)[C@@H]2CC[C@H]2CN2C[C@@]3(CCCc4cc(Cl)ccc43)COc3ccc(cc32)C(=O)NS1(=O)=O (relative stereo) [Example 44]
IC50 (Mcl-1/Bim interaction): 0.00208 µM | IC50 (OPM-2; 16 h): > 33.3 µM

C[C@@H]1[C@@H](C)CCC[C@H]([C@H]2OC[C@H](N3C(=O)c4ccccc4C3=O)CO2)[C@@H]2CC[C@H]2CN2C[C@@]3(CCCc4cc(Cl)ccc43)COc3ccc(cc32)C(=O)NS1(=O)=O (relative stereo) [Example 45]
IC50 (Mcl-1/Bim interaction): 0.00468 µM

C[C@@H]1[C@@H](C)CCC[C@H]([C@H]2OC[C@@H](N3CC(N(C)C)C3)CO2)[C@@H]2CC[C@H]2CN2C[C@@]3(CCCc4cc(Cl)ccc43)COc3ccc(cc32)C(=O)NS1(=O)=O [Example 67, (1S,3′R,6′R,7′S,11′S,12′R)-6-chloro-7′-(cis-5-(3-(dimethylamino)-1-azetidinyl)-1,3-dioxan-2-yl)-11′,12′-dimethyl-3,4-dihydro-2H,15′H-spiro[naphthalene-1,22′-[20]oxa[13]thia[1,14]diazatetracyclo [14.7.2.0~3,6~.0~19,24~]pentacosa[16,18,24]trien]-15′-one 13′,13′-dioxide]
IC50 (OPM-2; 16 h): 0.22 µM

C[C@@H]1[C@@H](C)CCC[C@H]([C@H]2OC[C@@H](N3CC(N(C)C)C3)CO2)[C@@H]2CC[C@H]2CN2C[C@@]3(CCCc4cc(Cl)ccc43)COc3ccc(cc32)C(=O)NS1(=O)=O [Example 68, (1S,3′R,6′R,7′S,11′S,12′R)-6-chloro-7′-(cis-5-(3-(dimethylamino)-1-azetidinyl)-1,3-dioxan-2-yl)-11′,12′-dimethyl-3,4-dihydro-2H,15′H-spiro[naphthalene-1,22′-[20]oxa[13]thia[1,14]diazatetracyclo [14.7.2.0~3,6~.0~19,24~]pentacosa[16,18,24]trien]-15′-one 13′,13′-dioxide]
IC50 (OPM-2; 16 h): 0.517 µM

COCC[C@@H]1[C@@H](C)CCC[C@H]([C@H]2OC[C@@H](N(C)C)CO2)[C@@H]2CC[C@H]2CN2C[C@@]3(CCCc4cc(Cl)ccc43)COc3ccc(cc32)C(=O)NS1(=O)=O [Example 82, (1S,3′R,6′R,7′S,11′S,12′R)-6-chloro-7′-(cis-5-(dimethylamino)-1,3-dioxan-2-yl)-12′-(2-methoxyethyl)-11′-methyl-3,4-dihydro-2H,15′H-spiro[naphthalene-1,22′-[20]oxa[13]thia[1,14]diazatetracyclo [14.7.2.0~3,6~.0~19,24~]pentacosa[16,18,24]trien]-15′-one 13′,13′-dioxide]
IC50 (OPM-2; 16 h): 0.033 µM

C[C@@H]1CS(=O)(=O)NC(=O)c2ccc3c(c2)N(C[C@@H]2CC[C@H]2[C@@H]([C@H]2OC[C@@H](N(C)C)CO2)CC[C@@H]1C)C[C@@]1(CCCc2cc(Cl)ccc21)CO3 [Example 84, (1S,3′R,6′R,7′S,10′S,11′S)-6-chloro-7′-(cis-5-(dimethylamino)-1,3-dioxan-2-yl)-10′,11′-dimethyl-3,4-dihydro-2H,15′H-spiro[naphthalene-1,22′-[20]oxa[13]thia[1,14]diazatetracyclo [14.7.2.0~3,6~.0~19,24~]pentacosa[16,18,24]trien]-15′-one 13′,13′-dioxide]
IC50 (OPM-2; 16 h): 0.145 µM

C[C@@H]1CS(=O)(=O)NC(=O)c2ccc3c(c2)N(C[C@@H]2CC[C@H]2[C@@H]([C@H]2OC[C@@H](N(C)C)CO2)CC[C@@H]1C)C[C@@]1(CCCc2cc(Cl)ccc21)CO3 [Example 85, (1S,3′R,6′R,7′S,10′S,11′S)-6-chloro-7′-(cis-5-(dimethylamino)-1,3-dioxan-2-yl)-10′,11′-dimethyl-3,4-dihydro-2H,15′H-spiro[naphthalene-1,22′-[20]oxa[13]thia[1,14]diazatetracyclo [14.7.2.0~3,6~.0~19,24~]pentacosa[16,18,24]trien]-15′-one 13′,13′-dioxide]
IC50 (OPM-2; 16 h): 1.09 µM

COC[C@@H]1[C@@H](C)CCC[C@H]([C@H]2OC[C@@H](N(C)C)CO2)[C@@H]2CC[C@H]2CN2C[C@@]3(CCCc4cc(Cl)ccc43)COc3ccc(cc32)C(=O)NS1(=O)=O [Example 91, (1S,3′R,6′R,7′S,11′S,12′S)-6-chloro-7′-(cis-5-(dimethylamino)-1,3-dioxan-2-yl)-12′-(methoxymethyl)-11′-methyl-3,4-dihydro-2H,15′H-spiro[naphthalene-1,22′-[20]oxa[13]thia[1,14]diazatetracyclo [14.7.2.0~3,6~.0~19,24~]pentacosa[16,18,24]trien]-15′-one 13′,13′-dioxide]
IC50 (OPM-2; 16 h): 0.047 µM

COC[C@@H]1[C@@H](C)CCC[C@H]([C@H]2OC[C@@H](N(C)C)CO2)[C@@H]2CC[C@H]2CN2C[C@@]3(CCCc4cc(Cl)ccc43)COc3ccc(cc32)C(=O)NS1(=O)=O [Example 92, (1S,3′R,6′R,7′S,11′S,12′S)-6-chloro-7′-(cis-5-(dimethylamino)-1,3-dioxan-2-yl)-12′-(methoxymethyl)-11′-methyl-3,4-dihydro-2H,15′H-spiro[naphthalene-1,22′-[20]oxa[13]thia[1,14]diazatetracyclo [14.7.2.0~3,6~.0~19,24~]pentacosa[16,18,24]trien]-15′-one 13′,13′-dioxide]
IC50 (OPM-2; 16 h): 0.988 µM
